Bases are written 5' to 3'; sugars and linkages follow in the same order, as letters with counts (s phosphorothioate, o phosphodiester; PS: all linkages phosphorothioate). The collection does not say whether C is 5-methylated. l = locked nucleic acid (LNA); d = 2'-deoxy (DNA)

The target in the data set is Tau. Briefly: rat primary cortical neurons, FLIPR, 25 uM ASO.
Regarding “ATTTCCAAATTCACTTTTAC (sugars lllldddddddddlddldll, PS)”, the calcium oscillation score was 110 % of control. On to “TAGACTCCTTCTTTAGGCTT (sugars l3 d14 l3, PS)”, for which the calcium oscillation score is 45.2 % of control. As for GCATGATTGTGGGCT (sugars l3 d9 l3, PS), the calcium oscillation score is 0 % of control. For the sequence TCCATCCTAAGTCAAC (sugars l3 d9 l4, PS), the calcium oscillation score is 65.3 % of control. Turning to “CTCAAAATCCTTAATTTAAC (sugars l4 d12 l4, PS)”, the calcium oscillation score is 64.4 % of control. With TGTCATCGCTTCCAGT (sugars l3 d10 l3, PS), the calcium oscillation score is 88 % of control. In the case of “CTATTCCTGAATTTTTC (sugars l4 d10 l3, PS)”, the calcium oscillation score is 69 % of control. In the case of “ACTCATCAACACCTTTTAAT (sugars l2 d14 l4, PS)” it was 63 % of control; in that of TGGATATAGTTAAGGC (sugars l3 d9 l4, PS), 106 % of control. As for “TAATTCACACAACAAACTA (sugars l4 d11 l4, PS)”, the calcium oscillation score is 88.7 % of control. Consider TCAGGTCAACTGGTTT (sugars l3 d10 l3, PS), for which the calcium oscillation score is 95.9 % of control. Turning to GCCACCTCCTGGTTTA (sugars l3 d10 l3, PS), the calcium oscillation score was 86.1 % of control.

As to “ATTTCCAAATTCACTTTTAC (sugars l2 d16 l2, PS)”, the calcium oscillation score is ≥ 200 % of control.

As for “CCAGACACCACTGGCGACTT (sugars l3 d14 l3, PS)”, the calcium oscillation score was 128 % of control. As to “ATTTTACTACTCTCTTTTCT (sugars l3 d14 l3, PS)”, the calcium oscillation score is 68 % of control. Consider “TCCACCCTTACACATAG (sugars l3 d12 l2, PS)”, for which the calcium oscillation score was 40.4 % of control. As for “CAGCCTACTTTATTCCC (sugars l2 d13 l2, PS)”, the calcium oscillation score was 79.2 % of control. As to “TCCACTTAGACACTCTTT (sugars l3 d13 l2, PS)”, the calcium oscillation score is 37.5 % of control. For the sequence ACCTCGTCAGCTAGCG (sugars l3 d10 l3, PS), the calcium oscillation score was 65.2 % of control.

Regarding “AACATCTAAACACCTCAA (sugars l4 d10 l4, PS)”, the calcium oscillation score is 78.9 % of control. As to GCAGAGGAACGTGTGG (sugars l3 d10 l3, PS), the calcium oscillation score is 0 % of control. In the case of CTCTCTGCATATATAAT (sugars l4 d9 l4, PS), the calcium oscillation score was 72.2 % of control. The figure for ATATTGAACTCACCCA (sugars l4 d9 l3, PS) is 67.3 % of control; for “AACCACTCTTATTCTTTAA (sugars l4 d11 l4, PS)” it is 77.1 % of control. Turning to CCACTCCATGTCAATC (sugars l4 d10 l2, PS), the calcium oscillation score is 69.3 % of control. Turning to “AACATTCTCACCAAACCCA (sugars l3 d14 l2, PS)”, the calcium oscillation score is 78.4 % of control. Consider “CACCATCCAAGTCAATGCCT (sugars l3 d14 l3, PS)”, for which the calcium oscillation score is 24.2 % of control. In the case of “CACCTTTTTCCATCTTACTA (sugars l2 d16 l2, PS)” it was 67.5 % of control; in that of TAAAGTCCCAGGTCT (sugars l3 d9 l3, PS), 124 % of control; in that of “CAGCACACAGGCAGCCACTG (sugars l3 d14 l3, PS)”, 23.8 % of control. On to “AATTTCAGAGCAAAGTGACC (sugars l3 d14 l3, PS)”, for which the calcium oscillation score is 2.38 % of control.

On to “CCCTGAAACCATTAACT (sugars l3 d12 l2, PS)”, for which the calcium oscillation score is 69 % of control. In the case of “TTATTTCCAAATTCACTTTT (sugars l5 d11 l4, PS)”, the calcium oscillation score is 119 % of control.

As for “ACCAATTAACCGAACTGCGA (sugars l3 d14 l3, PS)”, the calcium oscillation score was 22.6 % of control. In the case of “TTGGGTGGAGTACGGACCAC (sugars l3 d14 l3, PS)”, the calcium oscillation score was 0 % of control. As for “TGAGCCACACTTGGAGGTCA (sugars l3 d14 l3, PS)”, the calcium oscillation score is 4.52 % of control. As for “ATTATCATCCATTCTGA (sugars l2 d11 l4, PS)”, the calcium oscillation score is 45.6 % of control.

As for ATGCTTACACACCACA (sugars l2 d10 l4, PS), the calcium oscillation score is 88.5 % of control. Take “CACTTTCCTAATTCCCAAA (sugars l3 d14 l2, PS)”: the calcium oscillation score is 68 % of control. In the case of “TCAATTTCCCTGTTAAT (sugars l4 d11 l2, PS)”, the calcium oscillation score was 53.4 % of control. Take ATCAGAGGGTCTGAGC (sugars l3 d10 l3, PS): the calcium oscillation score was 59.3 % of control. Consider TACAATCCACTCCTCC (sugars l2 d10 l4, PS), for which the calcium oscillation score is 56.4 % of control. As for “CCACCTCCTAGAACACA (sugars l2 d13 l2, PS)”, the calcium oscillation score was 50.9 % of control. TCGTCAGCTAGCGTGG (sugars l3 d10 l3, PS): the calcium oscillation score was 55.2 % of control.

In the case of “AAATCCTTAATTTAACCACA (sugars l4 d12 l4, PS)”, the calcium oscillation score is 63.1 % of control. Turning to “CTTTATTTCCAAATTCACTT (sugars lldllddddddddddlldll, PS)”, the calcium oscillation score was 117 % of control. For the sequence “CAACTCTTTGAACACCCC (sugars l2 d14 l2, PS)”, the calcium oscillation score was 91.6 % of control.

For the sequence “AACTCATTTACCAATTATCT (sugars l4 d13 l3, PS)”, the calcium oscillation score was 67.3 % of control. Turning to “TTTATTTCCAAATTCACTTT (sugars l3 d14 l3, PS)”, the calcium oscillation score is ≥ 200 % of control.

For the sequence “GGTCAACTGGTTTGTAGACT (sugars l3 d14 l3, PS)”, the calcium oscillation score is 6.9 % of control. In the case of “ATTAACCAATTAACCGAACT (sugars l3 d14 l3, PS)”, the calcium oscillation score was 45.2 % of control. For the sequence GGTCTGAGCTACCAGG (sugars l3 d10 l3, PS), the calcium oscillation score was 14.8 % of control.

As to TACTATCCACTTGTTA (sugars l3 d11 l2, PS), the calcium oscillation score is 61.9 % of control. For the sequence “CTTTATTTCCAAATTCACT (sugars l4 d10 l1 d1 l3, PS)”, the calcium oscillation score was 106 % of control. CTCTCAAAAATCAACGC (sugars l4 d9 l4, PS): the calcium oscillation score is 66.3 % of control. With “TCACTTTACACATTAAATTT (sugars l4 d12 l4, PS)”, the calcium oscillation score is 62.5 % of control. As to “TCCAGCTACTTACCCAA (sugars l2 d12 l3, PS)”, the calcium oscillation score is 89 % of control. As to CCATGTCGATGCTGC (sugars l3 d9 l3, PS), the calcium oscillation score was 7.14 % of control.

With CTCTTAGCATCAGAGG (sugars l3 d10 l3, PS), the calcium oscillation score is 70.4 % of control. On to “TCGCGGAAGGTCAGCTTGTG (sugars l3 d14 l3, PS)”, for which the calcium oscillation score is 20.3 % of control. Regarding CAAGAGGCACAAGT (sugars l3 d8 l3, PS), the calcium oscillation score is 36.2 % of control. Regarding CTTTAATTTAATCACTC (sugars l4 d9 l4, PS), the calcium oscillation score is 17.3 % of control.

In the case of AGTCCCGAGCCAAAG (sugars l3 d9 l3, PS), the calcium oscillation score is 36.6 % of control.

Turning to “ATTATTTACACTGTCCT (sugars l2 d11 l4, PS)”, the calcium oscillation score was 78.1 % of control. Regarding GAAATCCCTCTACTCC (sugars l2 d11 l3, PS), the calcium oscillation score is 70.7 % of control. As for CGTGATCTTCCATC (sugars l3 d8 l3, PS), the calcium oscillation score was 85.1 % of control.

Regarding “CCTACTTTATTCCCTTA (sugars l2 d12 l3, PS)”, the calcium oscillation score was 95.9 % of control. In the case of “TCTTAGCATCAGAGGTTTCA (sugars l3 d14 l3, PS)”, the calcium oscillation score was 18.5 % of control.

For the sequence “CCTCTTCCACTACAAGCT (sugars l2 d14 l2, PS)”, the calcium oscillation score is 49.1 % of control. “ACTTTATTTCCAAATTCACT (sugars l4 d11 l5, PS)”: the calcium oscillation score was 115 % of control. With “TATCCAGCCATATTTCAACT (sugars l3 d14 l3, PS)”, the calcium oscillation score was 47.6 % of control. Regarding “TGTAATTTTCCCTACAT (sugars l3 d11 l3, PS)”, the calcium oscillation score is 91.3 % of control. For the sequence “TGCAAGAGTCACTGCACTGC (sugars l3 d14 l3, PS)”, the calcium oscillation score is 23.8 % of control. As for TCCTAATCCTGTGCTT (sugars l3 d10 l3, PS), the calcium oscillation score was 23 % of control.

Regarding CACTCTGATACTATTAT (sugars l4 d9 l4, PS), the calcium oscillation score is 69 % of control. Consider AATATTACACCATCCA (sugars l4 d8 l4, PS), for which the calcium oscillation score was 101 % of control. The figure for “TCCATTTTCACTGTTCA (sugars l3 d12 l2, PS)” is 87.7 % of control; for “ATACTCAAATTCTTCCT (sugars l3 d10 l4, PS)” it is 84.8 % of control. Consider AATAAGAAAGGAACGC (sugars l3 d9 l4, PS), for which the calcium oscillation score was 85.7 % of control. On to TTTCAACTCTTAGCAT (sugars l4 d8 l4, PS), for which the calcium oscillation score is 70.8 % of control. On to “TCCACAAACCAACTCAACAT (sugars l2 d15 l3, PS)”, for which the calcium oscillation score was 75.2 % of control. Regarding ACTATGAAATCCTTCT (sugars l4 d8 l4, PS), the calcium oscillation score is 92.1 % of control. In the case of “TCTTCTAATATCCTTGC (sugars l3 d11 l3, PS)”, the calcium oscillation score is 55.7 % of control.

Consider CTGGCCACCTCCTGGT (sugars l3 d10 l3, PS), for which the calcium oscillation score is 16.1 % of control. With “CTCAACATTACCCTTAAATA (sugars l4 d14 l2, PS)”, the calcium oscillation score is 57.6 % of control. As for “TTATTTCCAAATTCACTTTT (sugars llddlldddddddddldlll, PS)”, the calcium oscillation score was 123 % of control. Turning to “ATTTAGTTTTCCCACCC (sugars l2 d13 l2, PS)”, the calcium oscillation score is 63.4 % of control.

In the case of TTTACAAAGTCCACTTT (sugars l4 d9 l4, PS), the calcium oscillation score was 53 % of control. “CCTTTTTCCATCTTACTAAT (sugars l3 d14 l3, PS)”: the calcium oscillation score was 54.7 % of control. For the sequence “TCTCAGATTTTACTTCC (sugars l4 d11 l2, PS)”, the calcium oscillation score is 49.3 % of control. In the case of TGATGGATGTTGCCTA (sugars l3 d10 l3, PS), the calcium oscillation score is 29.6 % of control. For the sequence “TAAATACATCAATAGAAGGC (sugars l3 d14 l3, PS)”, the calcium oscillation score is 50.4 % of control. With ACACTGTCGTCGAATG (sugars l3 d10 l3, PS), the calcium oscillation score was 9.52 % of control. In the case of GGCGAGTCTACCATGT (sugars l3 d10 l3, PS) it was 43.4 % of control. In the case of “CTTTATTTCCAAATTCACTT (sugars l3 d11 l1 d2 l3, PS)”, the calcium oscillation score was 112 % of control.

The values are drawn from the OligoGym collection.
